Measurements as given in patent US9593138B2, “Nitrile-containing enzyme inhibitors and ruthenium complexes thereof” (Wayne State University, priority 2012, dated 2017).

Experiments:
[1] = Quantum yields of photoinduced CH3CN ligand exchange in H2O (Example 12); assay type: physicochemical; conditions: for quantum yield, first CH3CN ligand exchange (Φ500) / quantum yield, first CH3CN ligand exchange (Φ550): H2O; for quantum yield, first CH3CN ligand exchange (Φ500): 500 nm irradiation
Method: The quantum yields (Φ) for photoinduced ligand exchange of the first CH3CN in H2O were measured for complexes 12.1 and 12.3 with 500 nm and 550 nm irradiation wavelengths using the appropriate bandpass filters. The moles of complex reacted was quantitated using electronic absorption spectroscopy by monitoring the decrease in MLCT absorption maximum of each complex as a function of irradiation time (moles reacted/s) at early irradiation times, and Reinecke's salt was used as an actinometer to determine the intensity (Einstein/s) of the Xe arc lamp at the corresponding wavelengths. The Φ for the photoinduced ligand exchange of the second CH3CN ligand was measured for 12.1 using 400 nm and 550 nm irradiation wavelengths using the appropriate bandpass filters monitoring the decrease in the MLCT absorption peak of the mono-aqua intermediate, 12.4.

[2] = reported, cited from earlier work
[3] = system: prostate cancer PC3 cells; experiment: MTT cell viability, PC3 cells; assay type: cell-based; conditions: 1 nM-100 μM, light or dark, up to 72 h
Method: (§1) FIG. 6. Cytotoxicity of cis-[Ru(bpy)2(2)2]Cl2 (3) and the control compound cis-[Ru(bpy)2(MeCN)2](PF6)2 on BMM cells (A-B) and prostate cancer PC3 cells (C-D). […] Cell viability was determined using the MTT assay after 24 h for BMM cells and 72 h for PC3 cells, and is reported relative to control with only buffer added. Error bars represent the standard deviations of triplicate wells, and data are representative of three independent experiments.
These effects are highly dependent on the nature of ligands bound to ruthenium, and with some compounds treatment for up to 72 h is necessary to observe growth inhibitory effects. Later time points were not examined with BMM cells due to complications in maintaining these cells in culture over long periods of time, with or without VI.

BMM cells = experiment: MTT cell viability, BMM cells; assay type: cell-based, murine; conditions: 1 nM-100 μM, light or dark, after 24 h
Method: In order to gain more insight into the biological behavior of the caged inhibitor, effects of VI and its byproducts on cell viability in BMM cells were determined under light and dark conditions. BMM cells were treated with either VI or cis-[Ru(bpy)2(MeCN)2](PF6)2 as a control (1 nM-100 μM), incubated for 30 min, left in the dark or irradiated with a tungsten halogen lamp for 15 min and then washed, using the same protocol as the confocal microscopy studies shown in FIG. 15. After 24 h viabilities were determined using the MTT assay (FIG. 17).
as §1

papain = biological target: T1, papain (Carica papaya, UniProt P00784); experiment: Papain inhibition, chromogenic substrate BAPNA, light vs dark; assay type: biochemical
T1 sequence (P00784 134-345): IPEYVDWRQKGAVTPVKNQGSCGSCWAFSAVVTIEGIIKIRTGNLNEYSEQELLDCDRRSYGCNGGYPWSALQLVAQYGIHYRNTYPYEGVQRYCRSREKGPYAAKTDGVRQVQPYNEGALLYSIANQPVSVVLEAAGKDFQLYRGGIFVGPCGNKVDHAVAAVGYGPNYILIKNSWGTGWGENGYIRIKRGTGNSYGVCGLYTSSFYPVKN
Method: FIG. 5. […] Data points represent an average of three reactions and error bars are standard deviations.
Papain Inhibition Studies. The inhibition studies with papain were carried out following a modified procedure by Gütschow and coworkers (Löser et al., J. Med. Chem. 2005, 48, 7688-7707). […] A 0.25 mM papain stock solution was prepared in 0.1 mM HCl and kept frozen. For each experiment, the stock solution was diluted 250 times and activated for 45 min at 25° C. with a 0.1 M phosphate pH 6.5, 15 mM DTT and 2.5 mM EDTA buffer solution. A 10.0 mM solution of BAPNA in DMSO was prepared daily and plated (final concentration 1.0 mM). The inhibitor was plated as a 1% DMSO solution in the assay buffer.
The photolysis was conducted for 10 minutes (with gentle shaking of the plate every 2-3 minutes) using a 250 W tungsten halogen lamp (Osram Xenophot HLX) powered by a 24 V power supply. The irradiation wavelength was selected by placing a bandpass filter (395 nm cutoff) between the lamp and the sample, along with a 10 cm water cell to absorb infrared light. After photolysis, the reaction was initiated by addition of 65 μL of enzyme (final volume 100 μL, final enzyme concentration 0.65 μM). The absorbance changes due to the hydrolysis product p-nitroaniline (pNA) were measured at 405 nm every 2 min for 14 min (8 measures) at 25° C.

[4] = biological target: T2, human cathepsin B in hBMSC lysates (Homo sapiens, UniProt P07858); experiment: Cathepsin B activity in hBMSC lysates, Z-Arg-Arg-AMC; assay type: biochemical; conditions: hBMSC lysate, without irradiation (dark)
T2 construct: lysates from primary human bone marrow stromal cells (hBMSC), an important source of cathepsin activity; endogenous in cells; host or cells: primary human bone marrow stromal cells (hBMSC), lysate
Text: (§2) The irradiation wavelength was selected by placing a bandpass filter (395 nm cutoff) between the lamp and the sample, along with a 10 cm water cell to absorb infrared light.

human cathepsin K [5] = biological target: T3, human cathepsin K (Homo sapiens, UniProt P43235); experiment: Cathepsin K inhibition, Z-Gly-Pro-Arg-AMC, light vs dark; assay type: biochemical; conditions: without irradiation (dark); pH 5.5
T3 sequence (P43235 115-329): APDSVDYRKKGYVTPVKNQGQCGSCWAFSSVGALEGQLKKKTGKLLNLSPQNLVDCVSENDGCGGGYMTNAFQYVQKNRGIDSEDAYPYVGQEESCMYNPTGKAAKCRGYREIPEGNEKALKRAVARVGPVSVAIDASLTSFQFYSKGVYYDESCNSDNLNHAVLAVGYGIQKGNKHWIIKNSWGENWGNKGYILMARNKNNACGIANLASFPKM
Method: Cathepsins B, K and L were then examined for photoinduced inhibition with V. IC50 values for 1 and V (with and without irradiation) were determined in aqueous buffer at pH 5.5 for cathepsins L and K, and pH 6.0 for cathepsin B using fluorogenic substrates selective for each enzyme (Table 1). […] Control experiments show some level of inhibition by [Ru^II(bpy)2(MeCN)2](PF6)2, which may explain the lower ratios for dark vs. light conditions observed with cathepsins vs. papain.
The IC50 values represent the average from three independent experiments. […] Activities were determined with the fluorogenic substrates Z-Arg-Arg-AMC (cathepsin B), Z-Gly-Pro-Arg-AMC (cathepsin K) and Z-Phe-Arg-AMC (cathepsin L) (where AMC is aminomethylcoumarin). […]
Cathepsin Inhibition Studies. Cathepsin enzyme activity was determined from kinetic measurements performed by fluorometric detection of the hydrolysis product aminomethylcoumarin (AMC) at 37° C. every 2 min for 14 min (8 measures). […]
The photolysis was conducted for 10 minutes (with gentle shaking of the plate every 2-3 min) using a 250 W tungsten halogen lamp (Osram Xenophot HLX) powered by a 24 V power supply. […] Cathepsin enzyme activity was determined from kinetic measurements performed by fluorometric detection of the hydrolysis product AMC at 37° C. every 2 min for 14 min (8 measures) and MAX RFU slope values used for plotting (FIG. 7).

human cathepsin B = biological target: T4, human cathepsin B (Homo sapiens, UniProt P07858); experiment: Cathepsin B inhibition, Z-Arg-Arg-AMC, light vs dark; assay type: biochemical; conditions: without irradiation (dark); pH 6.0
T4 construct: Purified cathepsin B (human liver) was obtained from Enzo Life Sciences; purchased Enzo Life Sciences; host or cells: human liver (tissue-purified)
Text: as §2

human cathepsin L = biological target: T5, human cathepsin L (Homo sapiens, UniProt P07711); experiment: Cathepsin L inhibition, Z-Phe-Arg-AMC, light vs dark; assay type: biochemical; conditions: without irradiation (dark); pH 5.5
T5 construct: purchased Sigma
T5 sequence (P07711 114-333): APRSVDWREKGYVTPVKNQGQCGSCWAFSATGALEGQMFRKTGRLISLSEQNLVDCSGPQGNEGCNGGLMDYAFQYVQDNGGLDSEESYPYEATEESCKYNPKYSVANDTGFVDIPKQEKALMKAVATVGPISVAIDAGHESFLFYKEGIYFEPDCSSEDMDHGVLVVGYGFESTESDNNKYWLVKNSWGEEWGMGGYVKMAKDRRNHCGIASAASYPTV
Text: as §2

[6] = biological target: T6, human cathepsin B in DU145 lysates (Homo sapiens, UniProt P07858); experiment: Cathepsin B activity in DU145 lysates, Z-Arg-Arg-AMC; assay type: biochemical; conditions: DU145 lysate, without irradiation (dark)
T6 construct: endogenous in cells; host or cells: DU145 prostate carcinoma cells (ATCC), lysate
Text: as §2

human cathepsin K [7] = biological target: T3, human cathepsin K; experiment: Cathepsin K inhibition by the Ru(TPA)-caged inhibitor, 365 nm light (Example 10); assay type: biochemical; conditions: 500 μM, highest concentration surveyed, light and dark
Method: Complex 10.2 acts as a potent, photoactivated inhibitor of human cathepsin K. IC50 values were determined for 10.2 and 10.3 under dark conditions, and upon irradiation with 365 nm light (FIG. 20).

[8] = Dark controls: ligand exchange in the absence of light; assay type: physicochemical; conditions: H2O, room temperature (˜22° C.)
Method: FIG. 23. Dark Control with respect to FIG. 22 showing that the nitrile ligands are not released under similar conditions in the absence of light for a period of 24 hours.
Photochemistry. The photoreactivity of 12.1-12.3 was evaluated by monitoring the changes to the electronic absorption and ^1H NMR spectra as a function of irradiation time. […] Complexes 12.1-12.3 are inert to ligand substitution in the dark at room temperature under similar experimental conditions. For the symmetrical complexes 12.2 and 12.3, one resonance is observed in CD3CN corresponding to the methyl protons of both bound acetonitrile ligands at 2.22 ppm and 2.28 ppm, respectively. During the photolysis of 12.2 in CD3CN with λirr≧455 nm, the resonance at 2.22 ppm decreases with increasing irradiation time, while a peak at 1.96 ppm corresponding to free CH3CN in CD3CN increases in intensity at the same rate. The photolysis of 12.3 in CD3CN with λirr≧610 nm yields similar results with the decrease of the peak at 2.28 ppm with the concomitant increase of the free CH3CN resonance at 1.96 ppm. The intensity of the peak corresponding to free CH3CN at 1.96 ppm integrates to two ligands at the end of the photolysis for both 12.2 and 12.3 in CD3CN, indicative that that both CH3CN ligands in 12.2 and 12.3 are exchanged. […] Moreover, no shifts are observed in the aromatic region as the reaction progresses. […]

Q: Which “quantum yield, first CH3CN ligand exchange (Φ400)” value ([1]; 400 nm irradiation) does the source give for CC#N.CC#N.F[P-](F)(F)(F)(F)F.F[P-](F)(F)(F)(F)F.[Ru+2].c1cnc2c(c1)ccc1cccnc12.c1cnc2c(c1)ccc1cccnc12 [12.2, [Ru(phen)2(CH3CN)2](PF6)2] here?
A: 0.22(1)

Q: Which “quantum yield, first CH3CN ligand exchange (Φ500)” value [1] does the source give for CC#N.CC#N.F[P-](F)(F)(F)(F)F.F[P-](F)(F)(F)(F)F.[Ru+2].c1ccc2nc(-c3ccc4ccccc4n3)ccc2c1.c1ccc2nc(-c3ccc4ccccc4n3)ccc2c1 [12.3, [Ru(biq)2(CH3CN)2](PF6)2] here?
A: 0.24(1)

Q: What about the “quantum yield, first CH3CN ligand exchange (Φ550)” value ([1]; 550 nm irradiation) of the same molecule?
A: 0.150(8)

Q: Which “quantum yield for formation of the mono-aqua species (ΦR→I)” value [2] does the source give for N#Cc1c[nH]c(=O)[nH]c1=O.N#Cc1c[nH]c(=O)[nH]c1=O.[Cl-].[Cl-].[Ru+2].c1ccc(-c2ccccn2)nc1.c1ccc(-c2ccccn2)nc1 [cis-[Ru(bpy)2(5-cyanouracil)2]Cl2] here?
A: 0.16(4)

Q: With CC#N.CC#N.F[P-](F)(F)(F)(F)F.F[P-](F)(F)(F)(F)F.[Ru+2].c1ccc(-c2ccccn2)nc1.c1ccc(-c2ccccn2)nc1 [cis-[Ru(bpy)2(MeCN)2](PF6)2, reference compound] as the molecule, how does the “growth inhibitory effects (MTT)” value [3] read?
A: not observed

Q: And the “cell viability (MTT)” value (BMM cells)?
A: no effects on viability

Q: And the IC50 (papain; control complex, same profile under light and dark conditions)?
A: > 500 µM

Q: Which “overall photoaquation quantum yield (ΦR→P)” value ([2]; λirr=400 nm) does the source give for CC#N.CC#N.[Cl-].[Cl-].[Ru+2].c1ccc(-c2ccccn2)nc1.c1ccc(-c2ccccn2)nc1 [cis-[Ru(bpy)2(MeCN)2]Cl2] here?
A: 0.21

Q: Which results are given for CC(=O)N[C@@H](Cc1ccccc1)C(=O)NCC#N [compound 1, (S)-2-Acetamido-N-(cyanomethyl)-3-phenylpropanamide]?
A: IC50 [4]: 183 µM; IC50 (human cathepsin K [5]): 12 µM; IC50 (human cathepsin B): 133 µM; IC50 (human cathepsin L): 72 µM; IC50 (papain; without irradiation, phosphate buffer pH 6.5, enzyme 650 nM): 0.638 µM; IC50 [6]: 182 µM

Q: For [Ru(TPA)(CH3CN)2](PF6)2 [10.1], which “inhibition of cathepsin K” value (human cathepsin K [7]) is on record?
A: no inhibition

Q: With [Ru(biq)(phen)(CH3CN)2](PF6)2 [12.1] as the molecule, how does the “quantum yield, first CH3CN ligand exchange (Φ500)” value [1] read?
A: 0.26(1)

Q: What about the “quantum yield, first CH3CN ligand exchange (Φ550)” value ([1]; 550 nm irradiation) of the same molecule?
A: 0.140(5)

Q: For “cis-[Ru(bpy)(biq)(CH3CN)(H2O)]^2+ [12.4]”, which “quantum yield, exchange of the remaining CH3CN ligand (Φ400)” value ([1]; 400 nm irradiation, to the bis-aqua complex 12.5) is on record?
A: 0.0045(1)

Q: And the “quantum yield, exchange of the remaining CH3CN ligand (Φ550)” value ([1]; 550 nm irradiation, to the bis-aqua complex 12.5)?
A: 0.0014(5)

Q: And the “stability in the dark” value [8]?
A: stable in the dark for up to 6 hours
